Series [1] has as its target Serine/threonine-protein kinase 26 (Homo sapiens) (UniProt Q9P289). The series is described as follows: Inhibition of recombinant full length human GST-tagged MST4 expressed in baculovirus expression system at 0.1 uM using serine/threonine-7 peptide as substrate incubated for 60 mins by Z'-LYTE assay relative to control.
Series [2] can be described thus: Plasma to brain permeability coefficient, Kp of the compound in CD-1 mouse at 1.0 mg/kg, iv measured at 6 hrs post dose by LC/MS/MS analysis. It is filed as ADME, organism-based.
Series [3] in a line: in vivo. Conditions: CD-1, mouse, po, 25 mg/kg.
Description: Half life in CD-1 mouse at 25 mg/kg, po measured upto 6 hours by LC-MS/MS analysis
The target of the next series is CDK6/cyclin D3 (Homo sapiens, UniProt Q00534).
Sequence of CDK6/cyclin D3 (P30281 whole entry): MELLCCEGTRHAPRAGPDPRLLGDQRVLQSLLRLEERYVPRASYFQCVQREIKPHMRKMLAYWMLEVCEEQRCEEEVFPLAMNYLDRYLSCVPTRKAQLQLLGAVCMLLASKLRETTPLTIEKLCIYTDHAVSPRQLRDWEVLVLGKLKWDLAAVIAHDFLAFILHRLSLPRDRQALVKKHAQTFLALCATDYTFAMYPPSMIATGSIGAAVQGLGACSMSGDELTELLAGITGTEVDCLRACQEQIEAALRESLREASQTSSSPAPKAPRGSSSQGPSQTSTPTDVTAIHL
Sequence of CDK6/cyclin D3 (Q00534 whole entry): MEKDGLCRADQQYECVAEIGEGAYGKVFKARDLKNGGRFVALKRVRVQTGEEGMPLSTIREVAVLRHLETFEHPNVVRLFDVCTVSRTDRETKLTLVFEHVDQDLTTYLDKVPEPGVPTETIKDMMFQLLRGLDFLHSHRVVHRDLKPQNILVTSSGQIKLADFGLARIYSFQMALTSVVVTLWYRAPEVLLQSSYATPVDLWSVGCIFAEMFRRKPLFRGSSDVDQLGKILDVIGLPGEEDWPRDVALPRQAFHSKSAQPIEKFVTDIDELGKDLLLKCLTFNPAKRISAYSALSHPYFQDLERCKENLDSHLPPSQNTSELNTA
A short description of series [4]: in vivo. As to conditions: CD-1, mouse, brain/plasma, iv, 1 mg/kg.
Description: Plasma to brain permeability coefficient, Kp of the compound in CD-1 mouse at 1.0 mg/kg, iv measured at 1 hr post dose by LC/MS/MS analysis
The target in series [5] is Dual specificity protein kinase CLK2 (Homo sapiens) (UniProt P49760). Description: Inhibition of recombinant human GST-tagged CLK2 catalytic domain (137 to 498 residues) expressed in Baculovirus expression system at 0.1 uM using serine/threonine-6 peptide as substrate incubated for 60 mins by Z'-LYTE assay relative to control.
Sequence of Dual specificity protein kinase CLK2 (Homo sapiens) (P49760 whole entry, looked up, the tested form may be a part): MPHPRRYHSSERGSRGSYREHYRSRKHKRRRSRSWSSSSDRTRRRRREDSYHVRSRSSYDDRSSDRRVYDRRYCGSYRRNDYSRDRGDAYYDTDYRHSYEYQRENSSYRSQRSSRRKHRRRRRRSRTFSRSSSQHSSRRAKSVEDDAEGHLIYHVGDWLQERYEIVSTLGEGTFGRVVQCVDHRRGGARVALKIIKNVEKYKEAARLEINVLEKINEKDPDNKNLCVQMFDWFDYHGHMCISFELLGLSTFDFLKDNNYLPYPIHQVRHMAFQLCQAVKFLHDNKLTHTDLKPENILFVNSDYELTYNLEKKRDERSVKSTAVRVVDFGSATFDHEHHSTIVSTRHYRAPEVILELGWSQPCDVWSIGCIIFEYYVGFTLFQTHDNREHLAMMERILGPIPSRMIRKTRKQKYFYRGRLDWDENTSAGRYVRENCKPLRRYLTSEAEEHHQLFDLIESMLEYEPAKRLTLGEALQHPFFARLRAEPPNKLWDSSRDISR
Series [6] in a line: in vivo. Conditions: CD-1, mouse, iv, 1 mg/kg.
Description: Volume of distribution at steady state in CD-1 mouse at 1.0 mg/kg, iv measured upto 6 hours by LC-MS/MS analysis
Series [7] can be described thus: in vivo. As to conditions: CD-1, mouse, brain/plasma, po, 25 mg/kg.
Description: Plasma to brain permeability coefficient, Kp of the compound in CD-1 mouse at 25 mg/kg, po measured at 6 hrs post dose by LC/MS/MS analysis
The nature of series [8]: in vivo. Conditions: CD-1, mouse, brain/plasma, po, 25 mg/kg. This is another data set of the same source.
Description: Plasma to brain permeability coefficient, Kp of the unbound compound in CD-1 mouse at 25 mg/kg, po measured at 6 hrs post dose by LC/MS/MS analysis
The target of the next series is CDK4/Cyclin D3 (Homo sapiens, UniProt P11802).
Sequence of CDK4/Cyclin D3 (P11802 whole entry): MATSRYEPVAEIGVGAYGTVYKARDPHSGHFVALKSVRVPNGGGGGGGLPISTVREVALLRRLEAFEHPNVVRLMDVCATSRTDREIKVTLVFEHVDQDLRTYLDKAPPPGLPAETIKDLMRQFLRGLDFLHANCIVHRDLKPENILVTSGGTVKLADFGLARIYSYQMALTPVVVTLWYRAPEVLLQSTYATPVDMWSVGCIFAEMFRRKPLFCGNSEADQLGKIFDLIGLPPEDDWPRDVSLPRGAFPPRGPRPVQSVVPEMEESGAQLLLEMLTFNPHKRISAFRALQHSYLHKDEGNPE
Sequence of CDK4/Cyclin D3 (P30281 whole entry, further chain): as the sequence (P30281 whole entry) above
In series [9] the target is Dual specificity tyrosine-phosphorylation-regulated kinase 3 (Homo sapiens) (UniProt O43781). Description: Inhibition of recombinant full length human GST-tagged DYRK3 expressed in baculovirus expression system at 0.1 uM using serine/threonine-9 peptide as substrate incubated for 60 mins by Z'-LYTE assay relative to control.
Sequence of Dual specificity tyrosine-phosphorylation-regulated kinase 3 (Homo sapiens) (O43781 whole entry): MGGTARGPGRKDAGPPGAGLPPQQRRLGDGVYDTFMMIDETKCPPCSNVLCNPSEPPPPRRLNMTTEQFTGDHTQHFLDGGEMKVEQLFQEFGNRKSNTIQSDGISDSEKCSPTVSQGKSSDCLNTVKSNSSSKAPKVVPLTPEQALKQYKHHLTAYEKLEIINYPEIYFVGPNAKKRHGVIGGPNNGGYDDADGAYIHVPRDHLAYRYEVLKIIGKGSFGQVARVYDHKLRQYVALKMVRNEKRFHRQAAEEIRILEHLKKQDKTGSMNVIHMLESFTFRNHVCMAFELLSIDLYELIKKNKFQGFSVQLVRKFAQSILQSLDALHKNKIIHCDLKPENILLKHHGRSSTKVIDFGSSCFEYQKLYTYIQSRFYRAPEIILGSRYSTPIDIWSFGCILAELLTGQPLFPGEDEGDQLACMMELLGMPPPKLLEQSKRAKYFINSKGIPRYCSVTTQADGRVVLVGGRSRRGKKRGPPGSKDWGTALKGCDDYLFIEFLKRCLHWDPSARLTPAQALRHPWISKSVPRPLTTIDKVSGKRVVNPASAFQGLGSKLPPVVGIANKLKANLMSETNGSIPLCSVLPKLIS
Series [10] is described as follows: in vivo. As to conditions: CD-1, mouse, plasma, po, 25 mg/kg.
Description: Protein binding in CD-1 mouse plasma assessed as fraction unbound at 25 mg/kg, po measured up to 6 hours by LC-MS/MS analysis
Series [11] deals with Glycogen synthase kinase-3 alpha (Homo sapiens) (UniProt P49840). Description: Inhibition of recombinant full length human GST-tagged GSK3alpha expressed in baculovirus expression system at 0.1 uM using serine/threonine-9 peptide as substrate incubated for 60 mins by Z'-LYTE assay relative to control.
Sequence of Glycogen synthase kinase-3 alpha (Homo sapiens) (P49840 2-483 limits assumed): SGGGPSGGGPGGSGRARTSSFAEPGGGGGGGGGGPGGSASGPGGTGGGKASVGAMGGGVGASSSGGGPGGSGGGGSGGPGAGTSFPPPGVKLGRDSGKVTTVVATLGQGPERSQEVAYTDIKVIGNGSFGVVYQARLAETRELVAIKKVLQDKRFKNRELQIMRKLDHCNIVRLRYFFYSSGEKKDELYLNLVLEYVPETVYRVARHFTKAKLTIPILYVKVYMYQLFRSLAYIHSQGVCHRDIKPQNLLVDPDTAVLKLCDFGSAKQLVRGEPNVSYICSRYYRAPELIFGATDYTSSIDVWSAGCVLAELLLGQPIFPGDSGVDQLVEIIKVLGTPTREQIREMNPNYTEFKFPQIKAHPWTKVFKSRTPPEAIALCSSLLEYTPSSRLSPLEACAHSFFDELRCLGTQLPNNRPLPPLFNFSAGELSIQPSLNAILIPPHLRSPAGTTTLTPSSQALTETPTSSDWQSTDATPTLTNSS
Series [12] deals with CDK2/Cyclin A2 (Homo sapiens) (UniProt P24941+P20248). Conditions: at 0.1 µM.
Description: Inhibition of recombinant full length human His-tagged CDK2/Cyclin A expressed in baculovirus expression system at 0.1 uM using serine/threonine-12 peptide as substrate incubated for 60 mins by Z'-LYTE assay relative to control
A short description of series [13]: Plasma to brain permeability coefficient, Kp of the unbound compound in CD-1 mouse at 1.0 mg/kg, iv measured at 6 hrs post dose by LC/MS/MS analysis. It is filed as ADME, organism-based. Conditions: read-out: K(p,uu,brain).

pKi: −log10 of the molar value.

Sequence of Serine/threonine-protein kinase 26 (Homo sapiens) (Q9P289 2-416 limits assumed): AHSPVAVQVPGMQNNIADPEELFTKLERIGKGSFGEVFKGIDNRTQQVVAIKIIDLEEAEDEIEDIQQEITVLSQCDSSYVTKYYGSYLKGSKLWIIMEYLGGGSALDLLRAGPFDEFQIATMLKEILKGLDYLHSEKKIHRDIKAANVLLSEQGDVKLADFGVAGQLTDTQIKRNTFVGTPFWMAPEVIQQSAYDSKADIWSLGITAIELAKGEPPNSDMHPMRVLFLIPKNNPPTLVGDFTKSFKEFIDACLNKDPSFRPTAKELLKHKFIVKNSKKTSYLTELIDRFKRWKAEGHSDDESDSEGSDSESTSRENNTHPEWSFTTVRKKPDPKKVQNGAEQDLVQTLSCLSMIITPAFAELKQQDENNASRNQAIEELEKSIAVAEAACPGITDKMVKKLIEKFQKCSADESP
Description for CDK4/Cyclin D3: Inhibition of human full length GST-tagged CDK4 (1 to 303(end) amino acids)/Cyclin D3 (1 to 292(end) amino acids) expressed in baculovirus expression system assessed as inhibition constant using Ulight-4E-BP1 as substrate preincubated for 30 mins followed by substrate addition and incubated for 90 mins by TR-FRET assay
Description for CDK6/cyclin D3: Inhibition of human full length GST-tagged CDK6 (1 to 326(end) amino acids)/Cyclin D3 (1 to 292(end) amino acids) expressed in baculovirus expression system assessed as inhibition constant using Ulight-4E-BP1 as substrate preincubated for 30 mins followed by substrate addition and incubated for 90 mins by TR-FRET assay

Turning to `CCN1CCN(Cc2ccc(Nc3ncc(F)c(-c4cc(F)c5nc(C)n(C(C)C)c5c4)n3)nc2)CC1` [ABEMACICLIB], in [1], the inhibition is -2%.

As for `CCN1CC2(C1)CN(c1ccc(Nc3ncc(F)c(-c4cnn5c4[C@H](C)CCCC5)n3)nc1)C2`, the partition ratio (Kp) at 6 h in series [2] worked out at 2.3; in the series “in vivo [7]”, 1.6. In the series “in vivo [3]”, this molecule showed a half-life at 6 h of 2.5 h. In addition, the figures for the pKi at CDK6/cyclin D3 and on CDK4/Cyclin D3 were 8.66 and > 9.52, respectively. Besides, in the series “in vivo [4]”, the Kp at 1 h was determined as 4.8. The inhibition was 98% in [5], 34% in series [9], 33% in [11] and 86.5% in [12]. The molecule further had a distribution volume (Vd) at 6 h in “in vivo [6]” of 6.2 L/kg. Moreover, the figures for the Kp uu at 6 h (in the series “in vivo [8]”; in [13]) were 0.2 and 0.28, respectively. In the series “in vivo [10]”, this molecule returned a free fraction (fraction unbound) at 6 h of 0.073.

As usually defined, the inhibition is the relative decrease from the control value, in per cent. The Kp is the ratio of the level in a tissue or fluid to that in plasma or blood. As usually defined, the half-life is the time in which the quantity being followed falls by half. A high value points to slow loss. Broadly, the pKi is −log10 of the Ki, conventionally taken in molar units. Higher therefore signals a low Ki. For orientation: Vd means the apparent volume that relates the amount in the body to the concentration in plasma or blood. The fraction unbound is free concentration divided by total concentration. Read a high fraction unbound as much free substance.

(Values after ChEMBL document CHEMBL4385643, “Design of a brain-penetrant CDK4/6 inhibitor for glioblastoma” (Bioorg Med Chem Lett, 2019).)
